From patent US7544483B2, “Method for the production of protamine” (priority 2002, dated 2009)
Where a name gives a salt, the structure may show the parent alone.

Experiments:
Type in all cases: cell-based
[1] = tested on: Micrococcus luteus DSM 348; assay: Effect of biological buffers with or without protamine on the growth of Micrococcus luteus DSM 348; details: for μ (growth rate): buffer without protamine, pH of 8.0 (FIG. 4), starting inoculum 10^7 cells, mean of three replicates
Protocol: (§1) All bacterial strains are maintained as frozen stocks at −80° C. in TSB, Luria-Bertani broth.
(§2) Throughout the experiments strains are subcultured every 2 weeks on TSA (tryptic soy agar; 15 g l^−1 agar) or LBA (Luria-Bertani agar; 15 g l^−1 agar) depending upon the type of bacteria and experiment and kept at 4° C. The incubation temperature is 37° C. except for photo-heterotrophic bacteria (30° C.).
(§3) The growth curve is determined by measuring the optical density (OD), growth rate and doubling time. Additionally, the number of colony forming units is determined by counting bacterial spots.
(§4) Bacterial growth is monitored by recording the increase in optical density (OD) at 560 nm in a spectrophotometer (Ultrospec 1000, Pharmacia Biotech, England). Sterile medium is used as reference. […] At given times, 100 μl aliquots of the samples are removed and spread on corresponding agar plates. If necessary, the samples are diluted by factors between 10^2−10^8 to ensure good count ability. Colony forming unit determination (CFU/ml) is carried out in duplicate using a CCD camera module (Sony Corp., Japan) applying the BioProfil Software V 2000.01 (Vilber Lourmat, France).
(§5) A commercially available protamine from Salmon is obtained from Sigma Aldrich (Taufkirchen, Germany). A stock solution is prepared by dissolving protamine in distilled water. The solution is then sterilized with Rotabilo© filter units (0.22 μm; Carl Roth, Karlsruhe, Germany) and stored at −20° C. until use.
Determination of Bactericidal Effect of Biological Buffers With or Without Protamine on Gram-positive Bacteria
(§6) In all experiments the starting inoculum is 10^7 cells. The data shown are average means of three replicates.

[2] = tested on: Escherichia coli DH5α; assay: Effect of biological buffers with or without protamine on the growth of Escherichia coli DH5α; details: buffer without protamine; starting inoculum 10^7 cells; mean of three replicates
Protocol: as §1, §2, §3, §4, §5
Determination of Bactericidal Effect of Biological Buffers With or Without Protamine on Gram-negative Bacteria
as §6

[3] = tested on: Pseudomonas fluorescens; assay: Protamine tolerance of Pseudomonas fluorescens with a special phenotype
[4] = tested on: Escherichia coli; assay: Growth of Escherichia coli in the presence of protamine

| Molecule | μ (growth rate) [1] [h⁻¹] | td (doubling time) [2] [h] | μ (growth rate) [2] [h⁻¹] | concentration of protamine needed for bacterial death on further addition of lysozyme ([1]; pH of 8.0, citrate + bicarbonate composition with protamine, relative to the amount needed without lysozyme) [%] | effect of the composition additionally comprising protamine ([1]; pH of 8.0, citrate + bicarbonate composition) | protamine concentrations tolerated [3] | protamine concentration at which the organism does not grow [4] |
| --- | --- | --- | --- | --- | --- | --- | --- |
| O=C([O-])O.[Na+] [0.1M NaHCO3, NaHCO3] | 0 | 3.01 | 0.230 |  |  |  |  |
| O=C(O)CC(O)(CC(=O)O)C(=O)O [0.4M citrate] | 0 | 3.75 | 0.185 |  |  |  |  |
| lysozyme |  |  |  | 30 |  |  |  |
| protamine |  |  |  |  | bacterial death | more than 40 mg/ml | 1,5 mg/ml |
